Consider one substance from publication PMC3169616, “Unique Residues Involved in Activation of the Multitasking Protease/Chaperone HtrA from Chlamydia trachomatis” (PLoS ONE, 2011).

The test system of one test is CtHtrA I365D. Briefly: Act1 activation of Bcas1 proteolysis by mutated protein. As to conditions: I365D mutant; Act1 120 µM. The test is classed as biochemical, Chlamydia trachomatis. The text has this:
(§1) The hexameric CtHtrA molecular model was examined to identify the putative PDZ1 activator binding cleft (Fig. 4). The base of this cleft in CtHtrA is a hydrophobic pocket formed by the residues L302 and I365 (V328 in E. coli DegP) (Fig. 4). L302 and I365 were targeted for site directed mutagenesis (L302N and I365D) to make this non-polar pocket either polar or charged. The role of a potential conformational change caused by movement of the whole PDZ1 domain relative to the protease subunit was also tested by mutating a highly conserved arginine residue (R299W) on the flexible loop between the protease and PDZ domains. This mutation was made in order to alter the flexibility around this residue while occupying a similar sized area. Additionally, a second mutation was made in conjunction with the R299W mutation on the residue R373A which potentially forms a salt bridge between the PDZ domain and protease domain. This double mutation was made in order to reduce the flexibility and disrupt the mobile salt bridge involved in the PDZ1:protease domain interface. The R373A mutation was also made independently of R299W. These mutated proteins were assayed to examine the impact of the changes on Act1 activation on the Bcas1 substrate proteolysis. […]
(§2) The purified recombinant protein was examined by Coomassie stained polyacrylamide gels and activity was checked using ß-casein cleavage assays prior to use in peptide assays. […] Protease assays using pNA labelled peptides were conducted using the xMARK Microplate spectrophotometer (Bio-Rad) at 405 nm, incubated at 37°C, with a reading taken every 10 s for 30 min. The maximum slope over a minimum of 8 readings was used for the data analysis. […] The assays were excited at 340 nm and emission was detected at 405 nm with a gain of 1000, the assays were monitored every 20 s or at the minimum cycle time for up to 40 min. […] The assay results shown for the fluorescent compounds have been normalised for the amount of fluorescent emission detected using a standard curve of known concentrations of the MCA fluorophore under the identical assay conditions. […]

A further test concerns CtHtrA R299W/R373A. Described as above. The test is classed as biochemical, Chlamydia trachomatis. The note with it: R299W/R373A mutant; Act1 120 µM.
Description: as §1, §2

The test system of another test is CtHtrA R373A. The test is described as above. The test is classed as biochemical, Chlamydia trachomatis. As to conditions: R373A mutant; Act1 120 µM.
Description: as §1, §2

The target in another test is T1, CtHtrA (Chlamydia trachomatis serovar D, UniProt P18584).
T1 construct: His-tag; made in house; host or cells: E. coli BL21 (DE3), plasmid pETHtrA
T1 sequence (P18584 17-497): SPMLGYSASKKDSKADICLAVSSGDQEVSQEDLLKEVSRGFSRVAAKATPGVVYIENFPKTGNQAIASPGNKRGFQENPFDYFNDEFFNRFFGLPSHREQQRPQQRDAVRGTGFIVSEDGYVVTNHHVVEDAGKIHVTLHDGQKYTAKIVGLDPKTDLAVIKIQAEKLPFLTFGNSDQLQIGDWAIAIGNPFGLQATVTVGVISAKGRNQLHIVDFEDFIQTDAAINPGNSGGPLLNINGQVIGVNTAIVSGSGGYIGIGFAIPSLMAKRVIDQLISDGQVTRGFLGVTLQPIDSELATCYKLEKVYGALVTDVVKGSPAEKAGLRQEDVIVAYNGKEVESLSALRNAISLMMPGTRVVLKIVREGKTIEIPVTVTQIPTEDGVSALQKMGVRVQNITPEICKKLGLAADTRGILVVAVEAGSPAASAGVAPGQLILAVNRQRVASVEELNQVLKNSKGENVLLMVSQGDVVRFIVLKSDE
As to the kind of experiment: Activation of CtHtrA cleavage of Bcas1 substrate by added activator. The note with it: substrate Bcas1 (MCA-ENLHLPLPIIF-DNP), fluorimetric, 37°C. The test is classed as biochemical. How it is done: To determine if the addition of a second peptide to the protease assays could activate or increase CtHtrA proteolysis, two activator peptides were tested in the CtHtrA cleavage of the model ß-casein peptide substrate Bcas1. The first was based on the ß-casein C-terminal sequence (Act1: NH2-VLGPVRGPFPIIV-OH) and the second on insulin b chain C-terminal sequence (Act2: NH2-CGELGFFYTP-OH).
Finally, in order to determine if the 24-mer (highest amount with MOMP protein, or Act1), or 12-mer, or both, corresponds to enhanced protease activity, the incubations of CtHtrA and these potential in vivo activators were used for protease assays with the Bcas1 substrate (Fig. 6). […] The presence of the majority of CtHtrA as higher order oligomers correlated with an increased rate of proteolysis for CtHtrA, particularly when these oligomers were predominately 24-mers.
as §2, with “assays. Briefly, this involved incubating 2 µg of the protease with 10 µg of ß-casein in 50 mM Tris pH 7.0, 20 mM MgCl2 for 2 h prior to examining the assays by SDS PAGE (ß-casein and protease only controls were always conducted). Protease assays using peptides were conducted using custom synthesised peptides (Mimotopes).” for “assays.”

Entries after “also recorded” stand apart in the source; their conditions may differ.

Regarding H-VLGPVRGPFPIIV-OH [Act1], the “effect of Act1 on Bcas1 proteolysis rate” value with CtHtrA I365D, in the test with CtHtrA R299W/R373A and in the test on CtHtrA R373A was “failed to increase the proteolysis rate” in each case. The “effect of activator on rate of CtHtrA proteolysis of Bcas1” value on CtHtrA is listed as “greater ability of the two activators to increase the proteolysis rate; also recorded: increased proteolysis rate”.
